# Read-outs that look alike come from different tables or passages of the source.
# What was measured:
# Meloidogyne incognita = test: Meloidogyne test (gall formation on lettuce roots); type: in vivo; conditions: for pest or weed control at 20 ppm: Meloidogyne incognita, 336 h, after 14 d, nematicidal action by gall formation on lettuce, read-out: Kill rate in % after 14 d; for kill rate: 20 ppm, Meloidogyne test as described
# Description: (§1) • Solvent: 7 parts by weight of dimethylformamide • Emulsifier: 2 parts by weight of alkylaryl polyglycol ether
# To produce a suitable preparation of active compound, 1 part by weight of active compound is mixed with the stated amounts of solvent and emulsifier, and the concentrate is diluted with water to the desired concentration.
# Vessels are filled with sand, solution of active compound, Meloidogyne incognita egg/larvae suspension and lettuce seeds. The lettuce seeds germinate and the plants develop. On the roots, galls are formed.
# After the desired period of time, the nematicidal action is determined in % using the formation of galls. 100% means that no galls were found; 0% means that the number of galls on the treated plants corresponds to that of the untreated control.
# [1] = tested on: larvae of the mustard beetle (Phaedon cochleariae); test: Phaedon larvae test (cabbage leaves, dip); type: in vivo; conditions: 168 h, after 7 d, cabbage leaves dipped, read-out: Kill rate in % after 7 d
# Description: as §1
# After the desired period of time, the kill in % is determined. 100% means that all beetle larvae have been killed; 0% means that none of the beetle larvae have been killed.
# [2] = logP determination by reversed-phase HPLC (EEC Directive 79/831 Annex V.A8); type: physicochemical; conditions: for logP a): acidic range: 0.1% aqueous phosphoric acid/acetonitrile gradient, C18, 43° C.
# Text: (a) Mobile phases for the determination of the acidic range: 0.1% aqueous phosphoric acid, acetonitrile; linear gradient from 10% acetonitrile to 90% acteonitrile—the corresponding measurement results in Table 1 are marked^a). […]
# [3] = tested on: greenhouse red spider mite (Tetranychus urticae); test: Tetranychus test (OP-resistant/dip treatment); type: in vivo; conditions: 168 h, read-out: Kill rate in % after 7 d
# Description: Tetranychus Test (OP-Resistant/Dip Treatment)
# as §1
# After the desired period of time, the effect in % is determined. 100% means that all spider mites have been killed; 0% means that none of the spider mites have been killed.
# [4] = tested on: peach aphid (Myzus persicae); test: Myzus test (cabbage leaves, dip); type: in vivo; conditions: 500 ppm, cabbage leaves dipped
# Description: as §1
# (§2) To produce a suitable preparation of active compound, 1 part by weight of active compound is mixed with the stated amounts of solvent and emulsifier, and the concentrate is diluted with emulsifier-containing water to the desired concentration.
# Cabbage leaves (Brassica oleracea) which are heavily infested by the peach aphid (Myzus persicae) are treated by being dipped into the preparation of active compound of the desired concentration.
# After the desired period of time, the kill in % is determined. 100% means that all aphids have been killed; 0% means that none of the aphids have been killed.
# [5] = tested on: caterpillars of the armyworm (Spodoptera frugiperda); test: Spodoptera frugiperda test (cabbage leaves, dip); type: in vivo; conditions: 168 h, after 7 d, cabbage leaves dipped, read-out: Kill rate in % after 7 d
# Description: Spodoptera frugiperda Test
# as §1
# (§3) After the desired period of time, the kill in % is determined. 100% means that all caterpillars have been killed; 0% means that none of the caterpillars have been killed.
# [6] = tested on: caterpillars of the diamondback moth (Plutella xylostella); test: Plutella test (cabbage leaves, dip); type: in vivo; conditions: 500 ppm, cabbage leaves dipped
# Description: as §1, §2
# Cabbage leaves (Brassica oleracea) are treated by being dipped into the preparation of active compound of the desired concentration and are populated with caterpillars of the diamondback moth (Plutella xylostella) while the leaves are still moist.
# as §3
# [7] = reversed-phase HPLC column (C18); acidic range: 0.1% aqueous phosphoric acid/acetonitrile gradient, C18, 43° C.; read-out: logP a)
# [8] = 100 ppm, after 7 d, OP-resistant, bean plants dipped
structure (smiles),measurement,setting,value
FC(F)=CCCSc1nccc(-c2ccc(Cl)s2)n1 [Example 3],pest or weed control at 20 ppm,Meloidogyne incognita,100%
same,pest or weed control at 500 ppm,[1],100%
same,chromatographic logP,[2]; [7],4.73
[O-][S+](CCC=C(F)F)c1nccc(-c2ccccn2)n1 (stereo not drawn) [Example 5],pest or weed control at 100 ppm,[3],100%
same,chromatographic logP,[2]; [7],1.47
FC(F)=CCCSc1nccc(-c2cccnc2)n1 [Example 9],pest or weed control at 20 ppm,Meloidogyne incognita,100%
same,pest or weed control at 100 ppm,[3]; [8],100%
same,chromatographic logP,[2]; [7],1.96
FC(F)=CCCSc1nccc(-c2ccncc2)n1 [Example 10],pest or weed control at 500 ppm,[1],100%
same,chromatographic logP,[2]; [7],1.72
FC(F)=CCCSc1nccc(-c2nccs2)n1 [Example 11],Kill rate in % after 6 d,[4],95%
same,pest or weed control at 500 ppm,[1],95%
same,chromatographic logP,[2]; [7],3.33
FC(F)=C(F)CCSc1nccc(-c2nccs2)n1 [Example 12],pest or weed control at 20 ppm,Meloidogyne incognita,100%
same,chromatographic logP,[2]; [7],1.56
FC(F)=CCCSc1nccc(-c2cnccn2)n1 [Example 14],Kill rate in % after 6 d,[4],95%
same,pest or weed control at 100 ppm,[3]; [8],100%
same,chromatographic logP,[2]; [7],2.91
FC(F)=C(F)CCSc1nccc(-c2cnccn2)n1 [Example 16],pest or weed control at 20 ppm,Meloidogyne incognita,100%
same,chromatographic logP,[2]; [7],2.92
FC(F)=CCCSc1nccc(-c2cccc(Br)n2)n1 [Example 17],pest or weed control at 100 ppm,[3]; [8],100%
same,chromatographic logP,[2]; [7],4.51
CCOc1cccc(-c2ccnc(SCCC=C(F)F)n2)n1 [Example 20],pest or weed control at 500 ppm,[5],100%
same,chromatographic logP,[2]; [7],4.91
FC(F)=C(F)CCSc1nccc(-c2ccc[nH]2)n1 [Example 21],pest or weed control at 20 ppm,Meloidogyne incognita,100%
FC(F)=C(F)CCSc1nccc(-n2cccn2)n1 [Example 22],pest or weed control at 20 ppm,Meloidogyne incognita,100%
same,chromatographic logP,[2]; [7],3.27
FC(F)=CCCSc1nccc(-n2cc(Cl)cn2)n1 [Example 24],pest or weed control at 500 ppm,[1],100%
same,chromatographic logP,[2]; [7],4.13
FC(F)=CCCSc1nccc(-c2cccs2)n1 [Example 27],pest or weed control at 100 ppm,[3]; [8],100%
same,chromatographic logP,[2]; [7],3.83
FC(F)=C(F)CCSc1nccc(-c2cccs2)n1 [Example 28],pest or weed control at 20 ppm,Meloidogyne incognita,100%
same,chromatographic logP,[2]; [7],3.84
FC(F)=CCCSc1nccc(-c2ccc3ccccc3n2)n1 [Example 31],pest or weed control at 500 ppm,[5],100%
same,chromatographic logP,[2]; [7],4.81
FC(F)=CCCSc1nccc(-c2cc(-c3ccccc3)ccn2)n1 [Example 32],pest or weed control at 100 ppm,[3]; [8],100%
same,chromatographic logP,[2]; [7],4.77
CC(C)(C)c1ccnc(-c2ccnc(SCCC=C(F)F)n2)c1 [Example 33],pest or weed control at 100 ppm,[3]; [8],100%
same,chromatographic logP,[2]; [7],4.8
FC(F)=C(F)CCSc1nccc(-c2ccc3ccccc3n2)n1 [Example 34],pest or weed control at 20 ppm,Meloidogyne incognita,100%
same,chromatographic logP,[2]; [7],4.81
Cc1cc(=O)[nH]n1-c1ccnc(SCCC=C(F)F)n1 [Example 39],pest or weed control at 20 ppm,Meloidogyne incognita,100%
same,chromatographic logP,[2]; [7],2.55
FC(F)=CCCSc1nccc(-n2nnc3ccccc32)n1 [Example 40],pest or weed control at 500 ppm,[5],100%
same,chromatographic logP,[2]; [7],3.97
FC(F)=C(F)CCSc1nccc(-n2cccc2)n1 [Example 41],pest or weed control at 20 ppm,Meloidogyne incognita,100%
FC(F)=CCCSc1nccc(-n2nc3ccccc3n2)n1 [Example 42],pest or weed control at 100 ppm,[3]; [8],99%
same,chromatographic logP,[2]; [7],3.98
FC(F)=CCCSc1nccc(-c2ncccc2Cl)n1 [Example 43],pest or weed control at 100 ppm,[3]; [8],99%
same,chromatographic logP,[2]; [7],3.32
FC(F)=CCCSc1nccc(-c2nc3ccc(Cl)cc3s2)n1 [Example 45],pest or weed control at 20 ppm,Meloidogyne incognita,100%
same,chromatographic logP,[2]; [7],5.57
FC(F)=CCCSc1nccc(-c2cscn2)n1 [Example 48],pest or weed control at 500 ppm,[5],100%
same,chromatographic logP,[2]; [7],3.14
COc1ccc(-c2ccnc(SCCC(F)=C(F)F)n2)nc1 [Example 49],pest or weed control at 20 ppm,Meloidogyne incognita,100%
same,chromatographic logP,[2]; [7],2.17
COc1ccc(-c2ccnc(SCCC=C(F)F)n2)nc1 [Example 50],pest or weed control at 500 ppm,[5],100%
same,chromatographic logP,[2]; [7],2.12
FC(F)=CCCSc1nccc(-c2ccc(Br)s2)n1 [Example 51],pest or weed control at 500 ppm,[5],100%
same,chromatographic logP,[2]; [7],4.77
Cc1ccc(-c2ccnc(SCCC=C(F)F)n2)s1 [Example 52],pest or weed control at 500 ppm,[5],100%
same,chromatographic logP,[2]; [7],4.3
FC(F)=CCCSc1nccc(-c2cc3ccccc3s2)n1 [Example 53],pest or weed control at 500 ppm,[5],100%
same,chromatographic logP,[2]; [7],4.87
Cc1c(-c2ccnc(SCCC=C(F)F)n2)sc2ccccc12 [Example 54],Kill rate in % after 7 d,[6],100%
same,pest or weed control at 500 ppm,[5],100%
same,pest or weed control at 100 ppm,[3]; [8],100%
same,chromatographic logP,[2]; [7],5.25
FC(F)=C(F)CCSc1nccc(-c2cc3ccccc3s2)n1 [Example 57],pest or weed control at 20 ppm,Meloidogyne incognita,100%
same,chromatographic logP,[2]; [7],4.85
FC(F)=CCCSc1nccc(-c2ccsc2)n1 [Example 59],pest or weed control at 500 ppm,[1],100%
same,chromatographic logP,[2]; [7],3.8
FC(F)=C(F)CCSc1nccc(-c2ccsc2)n1 [Example 60],pest or weed control at 20 ppm,Meloidogyne incognita,100%
same,chromatographic logP,[2]; [7],3.82
Cc1cc(-c2ccnc(SCCC(F)=C(F)F)n2)c(C)s1 [Example 62],pest or weed control at 20 ppm,Meloidogyne incognita,100%
same,chromatographic logP,[2]; [7],4.79
FC(F)=CCCSc1nccc(-c2cc(Cl)sc2Cl)n1 [Example 63],pest or weed control at 500 ppm,[5],100%
same,pest or weed control at 100 ppm,[3],100%
same,chromatographic logP,[2]; [7],5.65
FC(F)=C(F)CCSc1nccc(-c2cc(Cl)sc2Cl)n1 [Example 64],pest or weed control at 20 ppm,Meloidogyne incognita,100%
same,chromatographic logP,[2]; [7],5.55
CC(C)(C)n1nnc(-c2cnc(SCCC(F)=C(F)F)nc2)n1 [Example 67],pest or weed control at 20 ppm,Meloidogyne incognita,100%
same,pest or weed control at 500 ppm,[1],100%
same,chromatographic logP,[2]; [7],4.22
Cc1nn(-c2ccnc(SCCC=C(F)F)n2)cc1Br [Example 82],kill rate,Meloidogyne incognita,100%
same,logP a),[2],logP '2 4.76^a)
CC(C)Oc1cnn(-c2ccnc(SCCC=C(F)F)n2)c1 [Example 85],kill rate,Meloidogyne incognita,100%
same,logP a),[2],logP = 4.26^a)
Cc1cc(C)n(-c2ccnc(SCCC=C(F)F)n2)n1 [Example 86],kill rate,Meloidogyne incognita,100%
same,logP a),[2],logP = 3.95^a)
FC(F)=CCCSc1nccc(-n2ncc3ccccc32)n1 [Example 87],kill rate,Meloidogyne incognita,100%
same,logP a),[2],logP = 4.26^a)
FC(F)=CCCSc1nccc(-n2cnc(Cl)c2Cl)n1 [Example 88],kill rate,Meloidogyne incognita,100%
same,logP a),[2],logP = 3.57^a)
FC(F)=CCCSc1nccc(-n2cnc(-c3ccccc3)c2)n1 [Example 92],kill rate,Meloidogyne incognita,100%
same,logP a),[2],logP = 3.45^a)
Nc1nn(-c2ccnc(SCCC=C(F)F)n2)cc1Br [Example 93],kill rate,Meloidogyne incognita,100%
same,logP a),[2],logP = 3.15^a)
Nc1ccn(-c2ccnc(SCCC=C(F)F)n2)n1 [Example 97],kill rate,Meloidogyne incognita,100%
same,logP a),[2],logP = 2.31^a)
N#Cc1cccn1-c1ccnc(SCCC=C(F)F)n1 [Example 104],kill rate,Meloidogyne incognita,100%
same,logP a),[2],logP = 3.23^a)
Cc1nccn1-c1ccnc(SCCC=C(F)F)n1 [Example 107],kill rate,Meloidogyne incognita,100%
same,logP a),[2],logP = 1.30^a)
FC(F)=CCCSc1nccc(-n2cnc(Cl)n2)n1 [Example 109],kill rate,Meloidogyne incognita,100%
same,logP a),[2],logP = 3.31^a)
O=[N+]([O-])c1ncn(-c2ccnc(SCCC=C(F)F)n2)n1 [Example 110],kill rate,Meloidogyne incognita,100%
same,logP a),[2],logP = 2.95^a)
FC(F)=CCCSc1nccc(-n2cncn2)n1 [Example 112],kill rate,Meloidogyne incognita,100%
same,logP a),[2],logP = 2.44^a)
O=C1CCC(=O)N1c1ccnc(SCCC=C(F)F)n1 [Example 119],kill rate,Meloidogyne incognita,100%
FC(F)=CCCSc1nccc(-n2cccc2)n1 [Example 120],kill rate,Meloidogyne incognita,100%
FC(F)=CCCSc1nccc(-n2nccn2)n1 [Example 125],kill rate,Meloidogyne incognita,100%
"FC(F)=CCCSc1nccc(Cl)n1 [Example (II-1), 4-chloro-2-[(4,4-difluoro-3-butenyl)-sulfanyl]-pyrimidine]",chromatographic logP,"[2]; reversed-phase HPLC column (C18), pH 2.3, read-out: logP (pH 2.3)",3.3
